Laboratory results published in patent US9051350B2, “Macrocyclic antiproliferation agents and methods of treatment” (University of Florida Research Foundation, Inc., priority 2008, dated 2015).
*1 amine or outer side, *2 acyl side, *3 side chain or, on linkers, in order; H or OH if unused. Where a SMILES comes first, the peptide text is derived from it. [ ]: non-standard residue; d: D form. ξ: configuration not given here. dβ3hAla(2R-Me) = C[C@@H](N[*:1])[C@@H](C)C(=O)[*:2]; X1 = CN(C(Cc1ccccc1)C1=N[C@H](C(=O)[*:2])CS1)[*:1]; X2 = CC[C@@H](N[*:1])C1=NC(C(=O)[*:2])CS1; d(aThr) = C[C@@H](O)[C@@H](N)C(=O)O; dNMeL = CN[C@H](CC(C)C)C(=O)O; ξPhLac = O=C(O)C(O)Cc1ccccc1; NMeV = CN[C@H](C(=O)O)C(C)C

How the values were obtained:
Test in all cases: Cell viability assay (MTT), antiproliferative activity
Format in all cases: cell-based
[1] = system: cervical carcinoma (HeLa); conditions: Homo sapiens, HeLa cells, 48 hours of incubation
Protocol: (§1) Cell culture medium was purchased from Invitrogen and fetal bovine serum (FBS) from Hyclone. Cells were propagated and maintained in DMEM medium (high glucose) supplemented with 10% FBS at 37° C. humidified air and 5% CO2.
(§2) HT29 colon adenocarcinoma cells were used for the bioassay-guided fractionation. To determine cell type selectivity, cells from four cancer cell lines (U2OS, HeLa, HT29 and IMR-32) were plated in 96-well format and incubated at 37° C. (5% CO2) for 24 hours. A dilution series of 1 in DMSO (1 μL) was then added, and after further 48 hours of incubation the cell viability was quantified using a standard assay kit based on MTT dye according to the manufacturer's instructions (Promega).

[2] = system: human osteosarcoma (U2OS); conditions: U2OS cells, 48 hours of incubation
Protocol: as §1, §2

neuroblastoma (IMR-32) = conditions: Homo sapiens, IMR-32 cells, 48 hours of incubation
Protocol: as §1, §2

[3] = system: colorectal adenocarcinoma (HT29); conditions: Homo sapiens, HT-29, HT29 cells, 48 hours of incubation
Protocol: as §1, §2

## CC[C@H]1NC(=O)[C@@H]2CSC(=N2)C(Cc2ccccc2)N(C)C(=O)[C@@H]2CCCN2C(=O)[C@H](C(C)C)N(C)C(=O)C(Cc2ccccc2)OC(=O)[C@H](C)[C@@H](C)NC(=O)[C@@H]([C@@H](C)O)NC(=O)[C@@H](CC(C)C)N(C)C(=O)C2CSC1=N2 (stereo partly drawn) [Compound 1, grassypeptolide] (cyclo([NMeV]P[X1][X2][dNMeL][d(aThr)][dβ3hAla(2R-Me)][ξPhLac]))
[1]
  IC50: 1000 nM
[2]
  IC50: 2200 nM
Neuroblastoma (IMR-32)
  IC50: 4200 nM
[3]
  IC50: 1500 nM
